Test results reported in US20070112043A1, “Acylated and non-acylated imidazo[2,1-b]-1,3,4,-thiadiazole-2-sulfonamides, and uses thereof” (priority 2003, published 2007).
Values after ≈ are worked out from the molar mass of the structure shown. Values joined by “and” are separate entries in the source; they are usually repeats but may differ in a detail not shown here. Equal values may be shown once. “Also recorded” adds a separate entry of the source. Read-outs that look alike come from different tables or passages of the source.

Experiments:
15N neuroblastoma cells = assay: Alamar blue viability assay, 15N neuroblastoma; format: cell-based; details: cellular viability after 48 hours; compound dissolved in DMSO
Description: In order to investigate the anti-cancer potential of compounds represented by formula I-a, 15N neuroblastoma cells lines were treated with compound and assayed for cellular viability after 48 hours. The cellular viability of 15N neuroblastomas treated with compounds 1, 5, 6, 11, and 13 (dissolved in DMSO) are summarized in Table 5 (see Compound 152).
Compounds were tested for anti-cancer properties using the Alamar blue viability assay. Daoy human medulloblastoma cells of 15N neuroblastoma cells were plated at a density of 5000 cells per well of a 96 well plate and cultured in RPMI media supplemented with antibiotics and 5% fetal bovine serum. Cells in culture were incubated with compound for 48 hours after which time Alamar blue was added to the culture media. After 4 hours media was transferred to opaque white plates and fluorescence of transformed alamar blue was measured at excitation 535/emission 595).

Microsomal stability = format: in vitro ADME
SCG neurons = details: cited from earlier work
Male Sprague-Dawley rats = assay: Rat model of cisplatin induced neuropathy (SNCV); format: in vivo; details: for efficacy in cisplatin model of peripheral neuropathy: dose not stated
Description: (§1) Male Sprague-Dawley rats were administered 2.5 mg/kg cisplatin daily, for five consecutive days to achieve a final cumulative dose of 12.5 mg/kg. On the third day following the final cisplatin injection, animals received compounds SC at concentrations of (3, 10, and 30 mg/kg). Dosing continued Monday through Friday for three consecutive weeks. The effect of cisplatin on peripheral nerve function, and the ability of the compounds to attenuate the cisplatin effect were determined after three weeks of drug treatment by measuring the sensory nerve conduction velocity (SNCV) in the caudal nerve of the tail. Stimulating electrodes were used to deliver 2 mA pulses once per second for 1.5 min. The resulting compound sensory nerve action potentials were averaged, and the mean response onset time was determined from the averaged response. Two mean response times were determined, the second being 20 mm distal from the first. The difference in onset time between the two recordings was determined and used to calculate the conductance velocity.
Male Sprague-Dawley rats (weighing 200-225 g on arrival) were intraperitoneally administered 2.5 mg/kg cisplatin daily, for five consecutive days to achieve a final cumulative dose of 12.5 mg/kg. On the third day following the final cisplatin injection, animals received compounds SC at concentrations of (3, 10, and 30 mg/kg). Dosing continued Monday through Friday for three consecutive weeks.
as §1, with “The” for “Male Sprague-Dawley rats were administered 2.5 mg/kg cisplatin daily, for five consecutive days to achieve a final cumulative dose of 12.5 mg/kg. On the third day following the final cisplatin injection, animals received compounds SC at concentrations of (3, 10, and 30 mg/kg). Dosing continued Monday through Friday for three consecutive weeks. The”, “velocity. [formula]” for “velocity.”
The results of these experiments were combined, and ANOVA was performed, followed by a Fisher LSD test.

[1] = Stability of solutions/formulations; format: physicochemical; details: for Stability of HPCD formulation: 10 wt/vol % HPCD, room temperature; for Stability in 10 wt/vol HPCD: PBS/HPCD (25:75) solution
Source text: (§2) This is illustrated for compound 15 in Table 7.

[2] = Solubility in water and formulations; details: for Solubility 10 wt/vol % HPCD water: Na salts in aqueous 10 wt/vol % HPCD; for Solubility Water: Na salts in water; for Solubility in 10 wt/vol HPCD: PBS/HPCD (25:75) solution
Description: Alternatively, the sodium salt can be prepared in situ by dissolving the free acid in phosphate buffered saline (PBS) that has been buffered to a pH of 7.4. The solubility and stability of these solutions can be improved by the use of an aqueous soluble co-solvent such as, but not limited to HPCD. This solubility can be further improved by the addition of surfactants such as PEG 400. In general, the free acid is suspended in 10 wt/vol % HPDC (10 g dissolved in 100 mL water) and treated with 0.5M PBS (pH 7.4) such that the volumes are in a ratio of 75:25.

sciatic nerve = details: 1 and 10 mg/kg; cited from earlier work
log P = format: physicochemical
pH of formulation = format: physicochemical; details: PBS/HPCD (25:75) solution
Source text: as §2

[3] = Conversion to primary sulfonamide in rat primary hepatocytes; format: in vitro ADME; details: 90 minutes
Description: Compound 15 is converted to compound 1 in the presence of liver microsomes using the procedure described by Cresteil, T., et al. (Cresteil, T., et al. Am. Soc. Pharm. Exper. Therapeutics, 2002, 30, 438-445). Upwards of 50% conversion is observed after 60 minutes. When incubated with rat primary hepatocytes, the conversion of compounds 15, 37, and 44 to their respective primary sulfonamides, 1, 11, and 13, is observed.

[4] = Taxol induced cell death, read-out: Taxol SCG IC50

Row | Compound | Stability in 10 wt/vol HPCD [1] [weeks] | log P (log P) | Solubility in 10 wt/vol HPCD [2] [µg/mL] | pH (pH of formulation) | further results
1 | NS(=O)(=O)c1nn2c(Br)c(-c3ccccc3)nc2s1 [5-Br-6-Ph-ITS, 5-Bromo-6-phenylmidazo[2,1-b]-1,3,4,-thiadiazole-2-sulfonamide, reference compound] | – | – | – | – | IC50 (15N neuroblastoma cells): 3 µM; degradation in microsomal fractions (Microsomal stability): rapidly degraded; also recorded: rapidly consumer by microsomal fractions; Microsomal Stability (1 hr) (Microsomal stability): 0%
2 | NS(=O)(=O)c1nn2cc(-c3ccc(N4CCOCC4)cc3)nc2s1 [Compound 5] | – | – | – | – | IC50 (15N neuroblastoma cells): ~20 µM and 20 µM; Microsomal Stability (1 hr) (Microsomal stability): 100%; IC50 (SCG neurons; [4]): 7 µM; IC50 (SCG neurons; anti-NGF induced cell death, read-out: anit-NGF SCG IC50): 22 µM
3 | [NH-]S(=O)(=O)c1nn2cc(-c3ccc(N4CCOCC4)cc3)nc2s1.[Na+] [Compound 6] | – | – | – | – | Cisplatin-induced loss in SNCV (Male Sprague-Dawley rats; 10-30 mg/kg, data not shown): protective; efficacy in cisplatin model of peripheral neuropathy (Male Sprague-Dawley rats): efficacy; Stability of HPCD formulation [1]: >14 days; Solubility 10 wt/vol % HPCD water [2]: 15000 µg/mL; Solubility Water [2]: 2300 µg/mL
4 | NS(=O)(=O)c1nn2cc(-c3ccc4c(c3)OCCCO4)nc2s1 [Compound 7] | – | – | – | – | IC50 (SCG neurons; [4]): 7 µM
5 | COc1cccc(-c2ccc(-c3cn4nc(S(N)(=O)=O)sc4n3)cc2)c1 [Compound 9] | – | – | – | – | IC50 (15N neuroblastoma cells): 5 µM; Microsomal Stability (1 hr) (Microsomal stability): 74%; IC50 (SCG neurons; [4]): 3 µM
6 | COc1cccc(-c2ccc(-c3cn4nc(S([NH-])(=O)=O)sc4n3)cc2)c1.[Na+] [Compound 10] | – | – | – | – | functional recovery (toe spread) (sciatic nerve): improved recovery; Cisplatin-induced loss in SNCV (Male Sprague-Dawley rats; 10-30 mg/kg, data not shown): protective; efficacy in cisplatin model of peripheral neuropathy (Male Sprague-Dawley rats): efficacy; Stability of HPCD formulation [1]: >14 days; Solubility 10 wt/vol % HPCD water [2]: 10000 µg/mL
7 | [NH-]S(=O)(=O)c1nn2cc(-c3ccc(-c4cccc(C(F)(F)F)c4)cc3)nc2s1.[Na+] [Compound 12] | – | – | – | – | Cisplatin-induced loss in SNCV (Male Sprague-Dawley rats; 10-30 mg/kg, data not shown): protective; efficacy in cisplatin model of peripheral neuropathy (Male Sprague-Dawley rats): efficacy; Stability of HPCD formulation [1]: >14 days; Solubility 10 wt/vol % HPCD water [2]: 4000 µg/mL; Solubility Water [2]: 1400 µg/mL
8 | [NH-]S(=O)(=O)c1nn2cc(-c3ccc(Oc4ccc(Cl)cc4)cc3)nc2s1.[Na+] [Compound 14] | – | – | – | – | Cisplatin-induced attenuation of SNCV (Male Sprague-Dawley rats; 10 mg/kg): prevented; Cisplatin-induced loss in SNCV (Male Sprague-Dawley rats; 10 and 30 mg/kg): prevented; efficacy in cisplatin model of peripheral neuropathy (Male Sprague-Dawley rats): efficacy; Stability of HPCD formulation [1]: >14 days; Solubility 10 wt/vol % HPCD water [2]: 20000 µg/mL; Solubility Water [2]: 10000 µg/mL
9 | CCCC(=O)NS(=O)(=O)c1nn2cc(-c3ccccc3)nc2s1 [Compound 16] | >4 | 3.67 | 4000 (≈ 11.4 mM) | 7.4 | –
10 | CC(C)(C)OC(=O)NCC(=O)NS(=O)(=O)c1nn2cc(-c3ccccc3)nc2s1 [Compound 18] | >4 | 3.32 | 10000 (≈ 22.9 mM) | 7.4 | –
11 | CC(=O)NCC(=O)NS(=O)(=O)c1nn2cc(-c3ccccc3)nc2s1 [Compound 20] | >4 | 1.45 | 10000 (≈ 26.4 mM) | 7.4 | –
12 | O=C(O)CCC(=O)NS(=O)(=O)c1nn2cc(-c3ccccc3)nc2s1 [Compound 22] | >4 | 2.26 | 8000 (≈ 21 mM) | 7.4 | –
13 | CSCCC(NC(=O)OC(C)(C)C)C(=O)NS(=O)(=O)c1nn2cc(-c3ccccc3)nc2s1 (centres unmarked) [Compound 23] | >1 | 3.37 | 5000 (≈ 9.77 mM) | 7.4 | –
14 | CC(=O)NS(=O)(=O)c1nn2cc(-c3ccc(N4CCOCC4)cc3)nc2s1 [Compound 31] | >4 | 2.48 | 10000 (≈ 24.5 mM) | 7.4 | Cisplatin-induced attenuation of SNCV (Male Sprague-Dawley rats; 30 mg/kg SC): protective activity
15 | COCC(=O)NS(=O)(=O)c1nn2cc(-c3ccc(N4CCOCC4)cc3)nc2s1 [Compound 32] | – | 2.14 | – | – | –
16 | CC(=O)NS(=O)(=O)c1nn2cc(-c3ccc(-c4cccc(C(F)(F)F)c4)cc3)nc2s1 [Compound 37] | >1 | 5.19 | 10000 (≈ 21.4 mM) | 7.4 | dissolution ([2]; 25 mg in 1 mL PEG 400/ethanol (50:50) + ethanolamine (20 μL)): clear solution
17 | COCC(=O)NS(=O)(=O)c1nn2cc(-c3ccc(-c4cccc(C(F)(F)F)c4)cc3)nc2s1 [Compound 39] | >1 | 4.85 | 10000 (≈ 20.1 mM) | 7.4 | Cisplatin-induced attenuation of SNCV (Male Sprague-Dawley rats; 30 mg/kg SC): protective activity
18 | CCCC(=O)NS(=O)(=O)c1nn2cc(-c3ccc(-c4cccc(C(F)(F)F)c4)cc3)nc2s1 [Compound 40] | >1 | 6.26 | 5000 (≈ 10.1 mM) | 7.4 | –
19 | COCCOCC(=O)NS(=O)(=O)c1nn2cc(-c3ccc(-c4cccc(C(F)(F)F)c4)cc3)nc2s1 [Compound 41] | >1 | 4.96 | 10000 (≈ 18.5 mM) | 7.4 | –
20 | COCCOCCOCC(=O)NS(=O)(=O)c1nn2cc(-c3ccc(-c4cccc(C(F)(F)F)c4)cc3)nc2s1 [Compound 42] | >4 | 4.35 | 10000 (≈ 17.1 mM) | 7.4 | –
21 | CC(C)(C)OC(=O)NS(=O)(=O)c1nn2cc(-c3ccc(-c4cccc(C(F)(F)F)c4)cc3)nc2s1 [Compound 43] | >1 | 5.76 | 5000 (≈ 9.53 mM) | 7.4 | –
22 | CC(=O)NS(=O)(=O)c1nn2cc(-c3ccc(Oc4ccc(Cl)cc4)cc3)nc2s1 [Compound 44] | – | – | – | – | conversion rate to primary sulfonamide [3]: 12%
23 | COCC(=O)NS(=O)(=O)c1nn2cc(-c3ccc(Oc4ccc(Cl)cc4)cc3)nc2s1 [Compound 45] | – | – | – | – | Cisplatin-induced attenuation of SNCV (Male Sprague-Dawley rats; 30 mg/kg SC): protective activity
